Results as given in the NIST ThermoML archive (doi:10.1016/j.fluid.2008.08.015).
± gives the expanded uncertainty stated by the source.

Conditions: 295 K; for surface tension liquid-gas: Maximal bubble pressure; for mass density / viscosity: 101.33 kPa, Liquid; for mass density: Buoyancy - hydrostatic balance with magnetic suspension - one sinker; for viscosity: Concentric cylinders viscometry

OCCO [1,2-ethanediol]
surface tension liquid-gas: 47.95 ± 2.4 mN/m | mass density: 1120.7 ± 22 kg/m3 | viscosity: 21.26 ± 3.1 mPa·s

OCC(O)CO [glycerol]
surface tension liquid-gas: 62.87 ± 1.4 mN/m | mass density: 1267.4 ± 25 kg/m3 | viscosity: 1499.5 ± 190 mPa·s
